SMILES strings stand for the structures.

The record followed here is patent US5066658A, “Substituted hydroxyureas” (Ortho Pharmaceutical Corporation, priority 1990, dated 1991).

In assay [1] the test system is Arachidonate-Induced Ear Edema. The assay can be described thus: Arachidonic Acid-Induced Ear Edema Assay. The class given is in vivo. Particulars: topical, mouse ear; for inhibition in vivo at 0.2 mg: 200 μg topically; for inhibition in vivo at 0.2 mg / inhibition in vivo at 0.4 mg / inhibition in vivo at 0.1 mg: read-out: Inhibition of Arachidonate-Induced Ear Edema, % Inh. (μg topically); for inhibition in vivo at 0.4 mg: 400 μg topically; for inhibition in vivo at 0.1 mg: 100 μg topically. Here is the method: The topical anti-inflammatory activity of a compound was determined by its ability to inhibit an experimentally-induced inflammation in the mouse ear. Basically, four milligrams of arachidonic acid in acetone were applied to the dorsal surface of one ear with a microliter pipette. The mice were sacrificed at various times after application of arachidonic acid (one-half to six hours). A section of each ear was removed with a 7 mm round punch and weighed on an electronic or analytical balance. The difference in weight between treated and untreated ears was determined. Compounds to be evaluated for anti-inflammatory activity can be incorporated directly into the irritant mixture or at various times prior to or after application of arachidonic acid.
The degree of anti-inflammatory activity is shown in Table I, and is expressed in terms of the percent inhibition of ear weight increase.

The subject of assay [2] is Arachidonate-Induced Bronchospasm (cyclooxygenase). The assay can be described thus: Pulmonary Mechanics Assay: arachidonate-induced bronchospasm without indomethacin (indicative of cyclooxygenase inhibition). It is filed as in vivo, male Hartley guinea pigs. Particulars: Cavia porcellus, guinea pig; for inhibition in vivo at 15 mg/kg: IV dosing, read-out: Inhibition of Arachidonate-Induced Bronchospasm (IV Dosing), % Inh. without Indomethacin. Here is the method: (§1) The bronchodilating activity of the compounds was tested in a pulmonary mechanics assay. Basically, male Hartley guinea pigs (about 400-500 g) were anesthetized with urethane (2 g/kg, i.p.) and placed in a whole body Plethysmograph. Cannulations of a jugular vein and carotid artery were performed for compound administration and monitoring blood pressure, respectively. The trachea was cannulated for respiration at a constate volume via a miniature starling pump. A Validyne differential pressure transducer (±20 cm H2 O) sensed transpleural pressure via a 15 gauge needle inserted into the pleural cavity and a sidearm from the tracheal cannula. Tidal volume was sensed by another Validyne differential pressure transducer (±2 cm H2 O) from pressure changes inside the plethysmograph. An on-line Buxco pulmonary mechanics computer calculated air flow, dynamic lung compliance and lung resistance. The values were recorded on a print-out.
(§2) The guinea pigs were pretreated with succinyl choline (1.2 mg/kg, i.v.) to arrest spontaneous respiration. A control challenge of arachidonic acid (0.5-1.0 mg/kg, i.v.) was administered, and the animals were then dosed with the test compound by various routes. At least 10 minutes were allowed to expire between arachidonic acid challenges. A second challenge was given and compared to the control response. This comparison was indicative of cyclooxygenase inhibition. Indomethacin (10 mg/kg, i.v.) was administered immediately after the second challenge. A third challenge of a higher dose of arachidonic acid (5-10 mg/kg, i.v.) was given. This response was induced by SRS-A and compared to the responses elicited by a separate control group of animals. Activity was indicative of lipoxygenase inhibition. Propranolol (0.005 mg/kg. i.v.) may be given prior to the third challenge to enhance the response to SRS-A.
(§3) Bronchoconstriction induced by arachidonic acid with or without indomethacin was expressed as maximum percent change in dynamic lung compliance (Cdyn) and maximum percent increase in lung resistance (RL). Each guinea pig served as its own control for cyclooxygenase evaluation. The results are shown in Table I and are expressed as the percent inhibition of control.

The next assay addresses T1, 5-lipoxygenase (Rattus norvegicus, UniProt P12527).
T1 construct: The cell-free homogenate was prepared by sonication of the cells followed by centrifugation at 40,000 xg; endogenous in cells; host or cells: RBL-1 (rat basophilic leukemia) cells, 40,000 xg supernatant of the sonicate
T1 sequence (P12527 1-673): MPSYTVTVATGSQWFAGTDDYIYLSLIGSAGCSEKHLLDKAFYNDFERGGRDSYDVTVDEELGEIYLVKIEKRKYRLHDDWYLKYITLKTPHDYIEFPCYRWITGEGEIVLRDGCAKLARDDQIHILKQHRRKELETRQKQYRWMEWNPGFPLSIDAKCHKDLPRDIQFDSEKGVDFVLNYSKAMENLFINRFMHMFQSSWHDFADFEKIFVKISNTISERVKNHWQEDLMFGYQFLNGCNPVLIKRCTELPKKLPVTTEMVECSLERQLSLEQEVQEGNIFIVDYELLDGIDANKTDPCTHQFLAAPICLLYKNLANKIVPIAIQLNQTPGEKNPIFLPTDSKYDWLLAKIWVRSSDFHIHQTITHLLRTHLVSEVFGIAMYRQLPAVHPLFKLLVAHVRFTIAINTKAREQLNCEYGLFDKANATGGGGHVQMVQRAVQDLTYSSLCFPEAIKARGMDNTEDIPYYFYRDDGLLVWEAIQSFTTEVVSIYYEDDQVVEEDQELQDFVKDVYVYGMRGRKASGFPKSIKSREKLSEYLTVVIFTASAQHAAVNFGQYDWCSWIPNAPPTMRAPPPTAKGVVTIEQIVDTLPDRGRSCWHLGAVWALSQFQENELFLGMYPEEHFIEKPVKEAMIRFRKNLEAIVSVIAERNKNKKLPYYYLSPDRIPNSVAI
As to the kind of experiment: Inhibition of 5-lipoxygenase in cell-free homogenate of rat basophilic leukemia (RBL-1) cells. It is filed as biochemical. Particulars: RBL-1 cell-free homogenate; for inhibition at 3 µM: read-out: Inhibition of 5-Lipoxygenase, % Inh. @ 3 μM. Here is the method:
The inhibition of 5-lipoxygenase was tested in a cell-free homogenate by the procedure of B. Jakschik et al., Biochem.Biophys.Res.Comm. 95, 103 (1980). Basically, rat basophilic leukemia cells (RBL-1 cells) were maintained in culture in a suitable medium, and were collected by centrifugation prior to assay. The cell-free homogenate was prepared by sonication of the cells followed by centrifugation at 40,000 xg. The CaCl2 dependent production of lipoxygenase products from ^14 C-arachidonic acid in the 40,000 xg supernatant was monitored in the presence of buffer (or other vehicle) or drug. Products were isolated by acidification and extraction, followed by thin layer chromatography. Radioactive areas corresponding to the authentic lipoxygenase products were quantitated by liquid scintillation counting. Data was reported as the IC50, the concentration causing 50% inhibition of the generation of lipoxygenase products. The results are shown it Table I as the percent inhibition at 3 μM or the amount of compound necessary to cause 50% inhibition.

Assay [3] relates to Arachidonate-Induced Bronchospasm (lipoxygenase). The assay can be described thus: Pulmonary Mechanics Assay: arachidonate-induced bronchospasm with indomethacin (SRS-A response, indicative of lipoxygenase inhibition). The class given is in vivo, male Hartley guinea pigs. Particulars: Cavia porcellus, guinea pig; for inhibition in vivo at 15 mg/kg: IV dosing, read-out: Inhibition of Arachidonate-Induced Bronchospasm (IV Dosing), % Inh. with Indomethacin. Here is the method:
as §1, §2, §3

For orientation: inhibition means the change of the read-out against control, counted positive when it falls. With `CCCCCCCCCCCCN(O)C(=O)N(C)C` [Example 13, N,N-Dimethyl-N.-dodecyl-N'-hydroxyurea], the inhibition in vivo at 0.2 mg in assay [1] turned out to be 90%. The inhibition in vivo at 15 mg/kg was found to be 57% in assay [2] and 66% in assay [3]. For the same compound, the inhibition at 3 µM at 5-lipoxygenase worked out at 95%.

The IC50 is the midpoint of a concentration-inhibition curve. Lower therefore signals greater potency. Regarding `CCCCCCCCCCN(O)C(=O)N(C)C` [Example 11, N,N-Dimethyl-N'-decyl-N'-hydroxyurea], the “Inhibition of Arachidonate-Induced Ear Edema, ED50” value (“Inhibition … ED50” for short) in assay [1] stood at 43 µg. In assay [1], the inhibition in vivo at 0.4 mg is 90%. The inhibition in vivo at 50 mg/kg is 36% in assay [2] (ID dosing, 50 mg/kg, read-out: Inhibition of Arachidonate-Induced Bronchospasm (ID Dosing), % Inh. without Indomethacin) and -46% in assay [3] (ID dosing, 50 mg/kg, read-out: Inhibition of Arachidonate-Induced Bronchospasm (ID Dosing), % Inh. with Indomethacin). Further, the inhibition in vivo at 15 mg/kg in assay [2] came out at 95%; in assay [3], 98%. In addition, the half-inhibitory concentration (IC50) on 5-lipoxygenase was determined as 0.1 µM.

As for `COc1ccc(CCNC(=O)N(C)O)cc1OC` [Example 40, N-[2-(3,4-Dimethoxyphenyl)ethyl]N'-hydroxy-N'-methylurea], in assay [1], the inhibition in vivo at 0.4 mg was 66%. Moreover, the inhibition in vivo at 25 mg/kg is 69% in assay [2] (ID dosing, 25 mg/kg, read-out: Inhibition of Arachidonate-Induced Bronchospasm (ID Dosing), % Inh. without Indomethacin) and 89% in assay [3] (ID dosing, 25 mg/kg, read-out: Inhibition of Arachidonate-Induced Bronchospasm (ID Dosing), % Inh. with Indomethacin). The inhibition in vivo at 15 mg/kg in assay [2] worked out at 86%; in assay [3] it was 89%. In addition, 4.3 µM corresponded to half-maximal inhibition on 5-lipoxygenase (IC50).

`CCCCCN1CCN(O)C1=O` [Example 23, 1-pentyl-3-hydroxyimidazolidin-2-one]: the inhibition in vivo at 0.2 mg in assay [1] was 29%. In addition, the inhibition in vivo at 15 mg/kg worked out at 97% in assay [2] and 52% in assay [3]. The concentration for half-maximal inhibition (IC50) against 5-lipoxygenase is above 10 µM.

As for `CCCCCCCCN1CCN(O)C1=O` [Example 24, 1-Octyl-3-hydroxyimidazolidin-2-one], the inhibition in vivo at 0.2 mg in assay [1] stood at 27%. For the same compound, the 50% inhibitory concentration (IC50) on 5-lipoxygenase worked out at 5.2 µM.

As for `CCCCCCCCCCN(O)C(=O)NCCCC(=O)OC` [Example 5, N-[3-(Methoxycarbonyl)propyl]-N'-decyl-N'-hydroxyurea], the inhibition in vivo at 0.4 mg in assay [1] amounted to 49%. Also, the values for the inhibition in vivo at 15 mg/kg in assay [2] and in assay [3] were below 20% and 37%, respectively. Moreover, on 5-lipoxygenase, the inhibition at 3 µM amounted to 100%.

In the case of `COc1ccc(CC(C)(C)NC(=O)N(C)O)cc1OC` [Example 56, N-[2-(3,4-Dimethoxyphenyl)-1,1-dimethylethyl]-N'hydroxy-N'-methylurea], the inhibition in vivo at 0.1 mg in assay [1] was determined as 38%. On 5-lipoxygenase, the inhibition at 3 µM is 3%.

As to `CCCCCCCCCCN(O)C(=O)NCC(=O)OCC` [Example 3, N-(Ethoxycarbonyl)methyl-N'-decyl-N'-hydroxyurea], the inhibition in vivo at 0.4 mg in assay [1] came to 51%. For the same compound, the inhibition at 3 µM at 5-lipoxygenase worked out at 100%.

For the compound `CCCCCCCCCCC1CN(O)C(=O)N1C` (centres unmarked) [Example 28, 4-Decyl-1-hydroxy-3-methylimidazolidin-2-one], in assay [1], the “Inhibition … ED50” value amounted to 134 µg and the inhibition in vivo at 0.4 mg came out at 85%. In addition, on 5-lipoxygenase, the inhibition at 3 µM turned out to be 96% and the half-maximal inhibitory concentration (IC50) is 0.28 µM.

As to `CCCCCCCCCC(C)(C)NC(=O)N(C)O` [Example 20, N-(1,1-Dimethyldecyl)-N'-methyl-N'-hydroxyurea], the inhibition in vivo at 0.1 mg in assay [1] was 47%. On 5-lipoxygenase, the inhibition at 3 µM worked out at 65%.

Take `COc1ccc(CCNC(=O)N(C)O)cc1OCc1ccccc1` [Example 69, N-[2-(3-Benzyloxy-4-methoxyphenyl)ethyl]-N'-hydroxy-N'-methylurea]: the inhibition in vivo at 0.2 mg in assay [1] is 38%. For the same compound, on 5-lipoxygenase, the inhibition at 3 µM was 41%.

Consider `CCCCCCCCCCN1CCCN(O)C1=O` [Example 26, 1-Decyl-3-hydroxy-3,4,5,6-tetrahydro-lH-pyrimidin-2-one], for which the inhibition in vivo at 0.4 mg in assay [1] came out at 30%. Besides, it took 0.7 µM to reach half-maximal inhibition at 5-lipoxygenase (IC50).

With `CN(O)C(=O)NCCCCCCCOCc1ccccc1` [Example 39, N-[7-(Benzyloxy)heptyl]-N'hydroxy-N'-methylurea], in assay [1], the “Inhibition … ED50” value was found to be 31 µg and the inhibition in vivo at 0.2 mg came out at 70%. The inhibition at 3 µM at 5-lipoxygenase was determined as 100%.

As to `CCCCCCCN(O)C(=O)N(C)C` [Example 9, N,N-Dimethyl-N'-heptyl-N'-hydroxyurea], in assay [1], the “Inhibition … ED50” value amounted to 55 µg. The inhibition at 3 µM on 5-lipoxygenase came out at 64%.

On to `COc1cc2c(cc1OC)CCN(C(=O)N(C)O)CC2` [Example 62, 7,8-Dimethoxy-N-hydroxy-N-methyl-1,2,4,5-tetrahydro-3H-3-benzazepine-3-carboxamide], for which the inhibition in vivo at 0.2 mg in assay [1] is 35%. Moreover, the inhibition at 3 µM on 5-lipoxygenase was 0%.

For the compound `CCCCCCCCCN(O)C(=O)N(C)C` [Example 8, N,N-Dimethyl-N'-nonyl-N'-hydroxyurea], in assay [1], the inhibition in vivo at 0.2 mg was 95%. The inhibition at 3 µM at 5-lipoxygenase came out at 93%.

With `CN(O)C(=O)NCCc1ccc(-c2ccccc2)cc1` [Example 31], the inhibition in vivo at 0.2 mg in assay [1] came to 40%. Also, on 5-lipoxygenase, the inhibition at 3 µM was found to be 39%.

For `CCCCCCCCCCN1C(=O)N(O)CC1C(=O)OCC` (centres unmarked) [Example 27, Ethyl 3-decyl-1-hydroxyimidazolidin-2-one-4-carboxylate], the inhibition in vivo at 0.4 mg in assay [1] was 13%. Further, at 5-lipoxygenase, the half-maximal inhibitory concentration (IC50) came out at 1.4 µM.

As to `COc1ccc(CCNC(=O)N(OC(C)=O)C(C)(C)C)cc1OC` [Example 52, N-[2-(3,4-Dimethoxyphenyl)ethyl]-N'-acetoxy-N'-t-butylurea], the inhibition in vivo at 0.1 mg in assay [1] was found to be 69%. Further, the inhibition at 3 µM on 5-lipoxygenase is 9%.
